Measurements as given in patent US20210251963A1, “UREA DERIVATIVES FOR USE IN THE TREATMENT OF SUBJECTS WITH ELEVATED EXPRESSION AND/OR ACTIVITY OF SRPK1” (Scandion Oncology A/S, priority 2018, published 2021).

How the values were obtained:
Experiment in all cases: Premier Screen kinase activity screening (33P ATP filter binding)
Type in all cases: biochemical
[1] = target: IRAK4 (Homo sapiens, UniProt Q9NWZ3); conditions: 10 μM SCO-101, mean of assay duplicates, read-out: Kinase activity (percentage of DMSO control)
Source text: (§1) The kinase activity screening was done at MRC in Dundee. The screen was a so-called “Premier Screen” with 140 kinases. More specific information can be found here: http://www.kinase-screen.mrc.ac.uk/services/premier-screen
(§2) The method is based on a radioactive filter binding assay using 33P ATP (Hastie, et al 2006. Nat Protoc. 2006; 1(2):968-71; Bain, et al 2007. Biochem J. 2007 Dec. 15; 408(3):297-315). This method is sensitive, accurate and provides a direct measure of kinase enzyme activity. A concentration of 10 μM SCO-101 was used.
(§3) In the table below, the data is portrayed as the mean percentage activity of assay duplicates and a standard deviation. These percentage activities were calculated in comparison to DMSO controls. 10 μM SCO-101 reduced the activity of SRPK1 to 6% of the DMSO control.

[2] = target: T1, SmMLCK (Homo sapiens, UniProt Q15746); conditions: 10 μM SCO-101, mean of assay duplicates, read-out: Kinase activity (percentage of DMSO control)
T1 construct: purchased MRC in Dundee (Premier Screen service)
Source text: as §1, §2, §3

[3] = target: T2, TrkA (Homo sapiens, UniProt P04629); conditions: 10 μM SCO-101, mean of assay duplicates, read-out: Kinase activity (percentage of DMSO control)
T2 construct: purchased MRC in Dundee (Premier Screen service)
Source text: as §1, §2, §3

[4] = target: T3, TTBK1 (Homo sapiens, UniProt Q5TCY1); conditions: 10 μM SCO-101, mean of assay duplicates, read-out: Kinase activity (percentage of DMSO control)
T3 construct: MRC in Dundee (screening service)
T3 sequence (Q5TCY1 whole entry, species assumed): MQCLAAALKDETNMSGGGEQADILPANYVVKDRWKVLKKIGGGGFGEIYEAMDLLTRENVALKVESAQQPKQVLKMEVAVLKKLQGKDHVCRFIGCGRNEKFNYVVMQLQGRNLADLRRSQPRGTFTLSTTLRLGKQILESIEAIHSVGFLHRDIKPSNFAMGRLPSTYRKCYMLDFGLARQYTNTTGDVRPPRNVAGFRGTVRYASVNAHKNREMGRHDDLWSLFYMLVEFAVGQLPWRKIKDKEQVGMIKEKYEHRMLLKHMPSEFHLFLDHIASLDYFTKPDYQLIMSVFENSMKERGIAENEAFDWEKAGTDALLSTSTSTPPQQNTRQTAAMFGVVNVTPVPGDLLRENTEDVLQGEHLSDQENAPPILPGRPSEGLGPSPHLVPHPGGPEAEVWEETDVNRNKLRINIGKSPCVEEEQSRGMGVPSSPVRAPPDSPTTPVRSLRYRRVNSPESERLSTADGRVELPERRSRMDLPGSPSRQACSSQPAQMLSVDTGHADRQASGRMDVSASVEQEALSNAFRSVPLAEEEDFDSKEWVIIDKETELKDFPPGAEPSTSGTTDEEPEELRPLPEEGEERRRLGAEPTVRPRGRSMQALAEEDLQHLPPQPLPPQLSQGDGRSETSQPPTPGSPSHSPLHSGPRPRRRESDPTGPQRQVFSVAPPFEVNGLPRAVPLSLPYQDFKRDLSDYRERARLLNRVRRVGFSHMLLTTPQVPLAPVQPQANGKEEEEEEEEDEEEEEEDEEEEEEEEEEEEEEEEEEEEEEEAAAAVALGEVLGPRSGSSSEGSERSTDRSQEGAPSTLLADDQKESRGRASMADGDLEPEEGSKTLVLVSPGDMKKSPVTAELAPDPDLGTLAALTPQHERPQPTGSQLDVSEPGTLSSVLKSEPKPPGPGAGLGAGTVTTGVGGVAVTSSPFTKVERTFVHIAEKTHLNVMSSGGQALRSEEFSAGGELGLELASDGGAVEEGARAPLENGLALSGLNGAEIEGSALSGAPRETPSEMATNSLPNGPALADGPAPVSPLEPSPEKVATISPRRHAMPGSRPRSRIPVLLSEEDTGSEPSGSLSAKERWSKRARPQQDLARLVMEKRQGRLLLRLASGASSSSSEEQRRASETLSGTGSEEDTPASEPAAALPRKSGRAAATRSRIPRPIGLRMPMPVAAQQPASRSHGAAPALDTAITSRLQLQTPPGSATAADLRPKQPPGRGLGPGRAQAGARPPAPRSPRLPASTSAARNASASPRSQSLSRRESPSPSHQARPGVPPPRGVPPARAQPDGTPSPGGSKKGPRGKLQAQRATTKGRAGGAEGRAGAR
Source text: as §1, §2, §3

[5] = target: T4, TESK1 (Homo sapiens, UniProt Q15569); conditions: 10 μM SCO-101, mean of assay duplicates, read-out: Kinase activity (percentage of DMSO control)
T4 construct: purchased MRC in Dundee (Premier Screen service)
Source text: as §1, §2, §3

[6] = target: T5, EF2K (Homo sapiens, UniProt O00418); conditions: 10 μM SCO-101, mean of assay duplicates, read-out: Kinase activity (percentage of DMSO control)
T5 construct: MRC Dundee (screening service)
Source text: as §1, §2, §3

[7] = target: IRAK1 (Homo sapiens, UniProt P51617); conditions: 10 μM SCO-101, mean of assay duplicates, read-out: Kinase activity (percentage of DMSO control)
Source text: as §1, §2, §3

[8] = target: T6, BRSK1 (Homo sapiens, UniProt Q8TDC3); conditions: 10 μM SCO-101, mean of assay duplicates, read-out: Kinase activity (percentage of DMSO control)
T6 construct: purchased MRC in Dundee (Premier Screen service)
Source text: as §1, §2, §3

[9] = target: T7, ROCK 2 (Rattus norvegicus, UniProt Q62868); conditions: 10 μM SCO-101, mean of assay duplicates, read-out: Kinase activity (percentage of DMSO control)
T7 construct: MRC Dundee (screening service)
T7 sequence (Q62868 2-543 limits assumed): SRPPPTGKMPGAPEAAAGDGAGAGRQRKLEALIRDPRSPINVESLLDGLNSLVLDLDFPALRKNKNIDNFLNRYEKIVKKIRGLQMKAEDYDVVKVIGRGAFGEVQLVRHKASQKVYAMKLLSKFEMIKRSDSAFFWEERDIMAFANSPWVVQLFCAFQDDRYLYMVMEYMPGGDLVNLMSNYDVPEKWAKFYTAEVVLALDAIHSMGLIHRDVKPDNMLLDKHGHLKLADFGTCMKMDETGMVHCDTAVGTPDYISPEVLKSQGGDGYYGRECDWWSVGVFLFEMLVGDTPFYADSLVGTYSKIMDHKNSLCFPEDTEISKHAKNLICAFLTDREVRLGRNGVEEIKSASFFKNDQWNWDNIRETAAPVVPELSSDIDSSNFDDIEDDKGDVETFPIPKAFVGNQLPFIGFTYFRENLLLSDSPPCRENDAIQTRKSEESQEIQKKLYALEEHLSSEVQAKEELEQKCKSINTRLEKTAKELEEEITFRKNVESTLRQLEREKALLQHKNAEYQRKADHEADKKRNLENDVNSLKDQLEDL
Source text: as §1, §2, §3

[10] = target: T8, S6K1 (Homo sapiens, UniProt P23443); conditions: 10 μM SCO-101, mean of assay duplicates, read-out: Kinase activity (percentage of DMSO control)
T8 construct: MRC in Dundee (screening service)
Source text: as §1, §2, §3

[11] = target: T9, HER4 (Homo sapiens, UniProt Q15303); conditions: 10 μM SCO-101, mean of assay duplicates, read-out: Kinase activity (percentage of DMSO control)
T9 construct: MRC Dundee (screening service)
Source text: as §1, §2, §3

[12] = target: T10, ABL (Homo sapiens, UniProt P00519); conditions: 10 μM SCO-101, mean of assay duplicates, read-out: Kinase activity (percentage of DMSO control)
T10 construct: MRC in Dundee (screening service)
Source text: as §1, §2, §3

[13] = target: T11, TBK1 (Homo sapiens, UniProt Q9UHD2); conditions: 10 μM SCO-101, mean of assay duplicates, read-out: Kinase activity (percentage of DMSO control)
T11 construct: purchased MRC in Dundee (Premier Screen service)
T11 sequence (Q9UHD2 whole entry, species assumed): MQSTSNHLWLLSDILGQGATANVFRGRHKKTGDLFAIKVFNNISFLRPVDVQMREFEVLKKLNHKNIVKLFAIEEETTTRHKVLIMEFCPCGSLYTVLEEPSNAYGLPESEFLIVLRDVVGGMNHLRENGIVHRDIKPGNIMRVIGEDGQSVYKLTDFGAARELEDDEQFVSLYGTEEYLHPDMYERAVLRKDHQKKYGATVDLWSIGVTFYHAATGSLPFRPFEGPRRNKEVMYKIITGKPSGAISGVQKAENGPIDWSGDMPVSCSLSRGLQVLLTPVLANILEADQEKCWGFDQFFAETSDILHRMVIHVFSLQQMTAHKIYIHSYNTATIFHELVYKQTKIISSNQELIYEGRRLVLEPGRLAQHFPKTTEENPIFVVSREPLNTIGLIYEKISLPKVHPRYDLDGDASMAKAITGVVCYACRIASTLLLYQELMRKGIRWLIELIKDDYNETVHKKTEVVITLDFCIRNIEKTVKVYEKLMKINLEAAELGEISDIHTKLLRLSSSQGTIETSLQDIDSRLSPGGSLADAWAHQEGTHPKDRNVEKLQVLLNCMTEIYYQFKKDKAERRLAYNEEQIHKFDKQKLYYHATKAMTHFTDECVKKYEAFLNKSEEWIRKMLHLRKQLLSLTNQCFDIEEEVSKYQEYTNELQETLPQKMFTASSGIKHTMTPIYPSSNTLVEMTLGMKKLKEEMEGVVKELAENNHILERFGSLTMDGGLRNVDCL
Source text: as §1, §2, §3

[14] = target: T12, HIPK2 (Homo sapiens, UniProt Q9H2X6); conditions: 10 μM SCO-101, mean of assay duplicates, read-out: Kinase activity (percentage of DMSO control)
T12 construct: purchased MRC in Dundee (Premier Screen service)
Source text: as §1, §2, §3

[15] = target: T13, PKCγ (Homo sapiens, UniProt P05129); conditions: 10 μM SCO-101, mean of assay duplicates, read-out: Kinase activity (percentage of DMSO control)
T13 construct: MRC Dundee (screening service)
Source text: as §1, §2, §3

[16] = target: T14, BTK (Homo sapiens, UniProt Q06187); conditions: 10 μM SCO-101, mean of assay duplicates, read-out: Kinase activity (percentage of DMSO control)
T14 construct: MRC in Dundee (screening service)
Source text: as §1, §2, §3

[17] = target: T15, CDK9-Cyclin T1 (Homo sapiens, UniProt P50750); conditions: 10 μM SCO-101, mean of assay duplicates, read-out: Kinase activity (percentage of DMSO control)
T15 construct: purchased MRC Dundee, Premier Screen (contract screening service)
Source text: as §1, §2, §3

[18] = target: T16, ERK8 (Homo sapiens, UniProt Q8TD08); conditions: 10 μM SCO-101, mean of assay duplicates, read-out: Kinase activity (percentage of DMSO control)
T16 construct: MRC in Dundee (screening service)
Source text: as §1, §2, §3

[19] = target: T17, PAK2 (Homo sapiens, UniProt Q13177); conditions: 10 μM SCO-101, mean of assay duplicates, read-out: Kinase activity (percentage of DMSO control)
T17 construct: MRC in Dundee (screening service)
Source text: as §1, §2, §3

[20] = target: T18, p38g MAPK (Homo sapiens, UniProt P53778); conditions: 10 μM SCO-101, mean of assay duplicates, read-out: Kinase activity (percentage of DMSO control)
T18 construct: purchased MRC Dundee, Premier Screen (contract screening service)
Source text: as §1, §2, §3

[21] = target: T19, MST3 (Homo sapiens, UniProt Q9Y6E0); conditions: 10 μM SCO-101, mean of assay duplicates, read-out: Kinase activity (percentage of DMSO control)
T19 construct: purchased MRC in Dundee (Premier Screen service)
Source text: as §1, §2, §3

[22] = target: T20, JNK3 (Homo sapiens, UniProt P53779); conditions: 10 μM SCO-101, mean of assay duplicates, read-out: Kinase activity (percentage of DMSO control)
T20 construct: purchased MRC Dundee, Premier Screen (contract screening service)
Source text: as §1, §2, §3

[23] = target: T21, MST2 (Homo sapiens, UniProt Q13188); conditions: 10 μM SCO-101, mean of assay duplicates, read-out: Kinase activity (percentage of DMSO control)
T21 construct: purchased MRC in Dundee (Premier Screen service)
Source text: as §1, §2, §3

[24] = target: MPSK1 (Homo sapiens, UniProt O75716); conditions: 10 μM SCO-101, mean of assay duplicates, read-out: Kinase activity (percentage of DMSO control)
Sequence of MPSK1 (O75716 whole entry, species assumed): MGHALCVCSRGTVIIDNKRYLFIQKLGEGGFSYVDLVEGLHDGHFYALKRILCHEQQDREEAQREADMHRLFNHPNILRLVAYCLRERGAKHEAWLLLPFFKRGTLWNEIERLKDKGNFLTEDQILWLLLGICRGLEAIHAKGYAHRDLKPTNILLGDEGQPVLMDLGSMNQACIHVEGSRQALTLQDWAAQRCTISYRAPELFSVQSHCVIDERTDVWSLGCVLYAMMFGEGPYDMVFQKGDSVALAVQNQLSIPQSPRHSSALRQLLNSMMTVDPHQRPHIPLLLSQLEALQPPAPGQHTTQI
Source text: as §1, §2, §3

[25] = target: T22, ZAP70 (Homo sapiens, UniProt P43403); conditions: 10 μM SCO-101, mean of assay duplicates, read-out: Kinase activity (percentage of DMSO control)
T22 construct: MRC Dundee (screening service)
Source text: as §1, §2, §3

[26] = target: PHK; conditions: 10 μM SCO-101, mean of assay duplicates
Source text: as §1, §2, §3

[27] = target: T23, IKKe (Homo sapiens, UniProt Q14164); conditions: 10 μM SCO-101, mean of assay duplicates, read-out: Kinase activity (percentage of DMSO control)
T23 construct: purchased MRC in Dundee (Premier Screen service)
T23 sequence (Q14164 whole entry, species assumed): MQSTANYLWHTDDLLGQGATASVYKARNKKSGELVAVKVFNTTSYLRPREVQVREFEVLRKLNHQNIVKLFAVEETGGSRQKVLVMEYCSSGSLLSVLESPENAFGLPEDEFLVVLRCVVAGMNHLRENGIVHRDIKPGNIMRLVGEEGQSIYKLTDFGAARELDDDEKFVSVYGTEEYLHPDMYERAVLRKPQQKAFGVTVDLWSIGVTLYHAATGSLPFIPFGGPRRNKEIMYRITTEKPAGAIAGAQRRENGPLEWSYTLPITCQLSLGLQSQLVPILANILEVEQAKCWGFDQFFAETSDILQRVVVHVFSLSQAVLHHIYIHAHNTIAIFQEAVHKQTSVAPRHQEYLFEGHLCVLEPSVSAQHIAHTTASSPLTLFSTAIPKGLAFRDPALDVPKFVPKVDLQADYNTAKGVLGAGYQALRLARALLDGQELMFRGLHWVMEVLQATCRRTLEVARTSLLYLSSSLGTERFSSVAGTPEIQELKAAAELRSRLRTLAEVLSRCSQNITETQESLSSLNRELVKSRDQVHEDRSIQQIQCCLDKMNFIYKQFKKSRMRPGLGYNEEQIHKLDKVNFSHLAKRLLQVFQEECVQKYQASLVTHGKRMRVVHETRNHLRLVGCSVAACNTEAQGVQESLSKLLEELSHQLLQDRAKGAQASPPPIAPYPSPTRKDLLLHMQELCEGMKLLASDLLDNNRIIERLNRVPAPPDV
Source text: as §1, §2, §3

[28] = target: T24, CAMKKb (Homo sapiens, UniProt Q96RR4); conditions: 10 μM SCO-101, mean of assay duplicates, read-out: Kinase activity (percentage of DMSO control)
T24 construct: MRC in Dundee (screening service)
Source text: as §1, §2, §3

[29] = target: T25, GCK (Homo sapiens, UniProt Q12851); conditions: 10 μM SCO-101, mean of assay duplicates, read-out: Kinase activity (percentage of DMSO control)
T25 construct: MRC in Dundee (screening service)
Source text: as §1, §2, §3

[30] = target: T26, IKKb (Homo sapiens, UniProt O14920); conditions: 10 μM SCO-101, mean of assay duplicates, read-out: Kinase activity (percentage of DMSO control)
T26 construct: MRC Dundee (screening service)
Source text: as §1, §2, §3

[31] = target: T27, MEKK1 (Homo sapiens, UniProt Q13233); conditions: 10 μM SCO-101, mean of assay duplicates, read-out: Kinase activity (percentage of DMSO control)
T27 construct: purchased MRC Dundee, Premier Screen (contract screening service)
Source text: as §1, §2, §3

[32] = target: T28, EIF2AK3 (Homo sapiens, UniProt Q9NZJ5); conditions: 10 μM SCO-101, mean of assay duplicates, read-out: Kinase activity (percentage of DMSO control)
T28 construct: MRC Dundee (screening service)
T28 sequence (Q9NZJ5 30-1116, species assumed): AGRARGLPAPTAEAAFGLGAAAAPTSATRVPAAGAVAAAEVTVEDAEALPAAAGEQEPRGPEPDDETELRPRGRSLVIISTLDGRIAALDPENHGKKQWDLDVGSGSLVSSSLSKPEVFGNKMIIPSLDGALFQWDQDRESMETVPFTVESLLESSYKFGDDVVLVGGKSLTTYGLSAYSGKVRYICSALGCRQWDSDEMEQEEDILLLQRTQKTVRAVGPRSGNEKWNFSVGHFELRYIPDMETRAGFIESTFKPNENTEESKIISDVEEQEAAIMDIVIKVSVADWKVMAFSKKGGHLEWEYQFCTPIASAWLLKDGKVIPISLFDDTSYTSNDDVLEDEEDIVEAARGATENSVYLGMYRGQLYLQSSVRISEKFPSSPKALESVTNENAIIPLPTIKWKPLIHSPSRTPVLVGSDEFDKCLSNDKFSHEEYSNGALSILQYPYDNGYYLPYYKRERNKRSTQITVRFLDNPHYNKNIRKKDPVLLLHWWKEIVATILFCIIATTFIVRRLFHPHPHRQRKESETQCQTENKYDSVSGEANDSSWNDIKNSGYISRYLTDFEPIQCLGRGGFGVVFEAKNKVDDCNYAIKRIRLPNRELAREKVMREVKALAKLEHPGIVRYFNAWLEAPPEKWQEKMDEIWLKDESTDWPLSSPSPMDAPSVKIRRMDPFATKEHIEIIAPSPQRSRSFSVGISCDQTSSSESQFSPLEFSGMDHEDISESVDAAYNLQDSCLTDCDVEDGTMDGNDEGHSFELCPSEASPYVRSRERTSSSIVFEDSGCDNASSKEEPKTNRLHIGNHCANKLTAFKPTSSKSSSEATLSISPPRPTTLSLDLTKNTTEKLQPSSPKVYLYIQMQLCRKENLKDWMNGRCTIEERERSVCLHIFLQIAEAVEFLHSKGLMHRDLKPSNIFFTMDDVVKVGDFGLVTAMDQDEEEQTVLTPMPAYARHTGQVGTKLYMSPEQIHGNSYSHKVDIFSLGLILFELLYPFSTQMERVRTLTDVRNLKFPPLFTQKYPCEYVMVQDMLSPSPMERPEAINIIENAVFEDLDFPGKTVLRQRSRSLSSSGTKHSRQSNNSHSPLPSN
Source text: as §1, §2, §3

[33] = target: T29, p38a MAPK (Homo sapiens, UniProt Q16539); conditions: 10 μM SCO-101, mean of assay duplicates, read-out: Kinase activity (percentage of DMSO control)
T29 construct: purchased MRC in Dundee (Premier Screen service)
T29 sequence (Q16539 whole entry): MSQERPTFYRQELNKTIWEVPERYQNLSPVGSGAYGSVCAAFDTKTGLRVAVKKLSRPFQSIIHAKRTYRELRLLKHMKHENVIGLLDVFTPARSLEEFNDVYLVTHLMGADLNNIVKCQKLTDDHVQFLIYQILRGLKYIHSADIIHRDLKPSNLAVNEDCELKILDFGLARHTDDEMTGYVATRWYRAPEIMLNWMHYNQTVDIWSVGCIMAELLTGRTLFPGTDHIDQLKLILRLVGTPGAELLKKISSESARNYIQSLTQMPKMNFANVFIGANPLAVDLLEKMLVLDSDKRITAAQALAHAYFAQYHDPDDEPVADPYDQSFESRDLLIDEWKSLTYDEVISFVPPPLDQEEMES
Source text: as §1, §2, §3

[34] = target: EPH-B3 (Homo sapiens, UniProt P54753); conditions: 10 μM SCO-101, mean of assay duplicates, read-out: Kinase activity (percentage of DMSO control)
Source text: as §1, §2, §3

[35] = target: T30, BRSK2 (Homo sapiens, UniProt Q8IWQ3); conditions: 10 μM SCO-101, mean of assay duplicates, read-out: Kinase activity (percentage of DMSO control)
T30 construct: MRC in Dundee (screening service)
Source text: as §1, §2, §3

## O=C(Nc1cc(C(F)(F)F)cc(C(F)(F)F)c1)Nc1ccc(Br)cc1-c1nnn[nH]1 [SCO-101]
[1]
  remaining activity at 10 µM: 112%
[2]
  remaining activity at 10 µM: 77%
[3]
  remaining activity at 10 µM: 25%
[4]
  remaining activity at 10 µM: 94%
[5]
  remaining activity at 10 µM: 54%
[6]
  remaining activity at 10 µM: 95%
[7]
  remaining activity at 10 µM: 115%
[8]
  remaining activity at 10 µM: 124%
[9]
  remaining activity at 10 µM: 101%
[10]
  remaining activity at 10 µM: 92%
[11]
  remaining activity at 10 µM: 98%
[12]
  remaining activity at 10 µM: 85%
[13]
  remaining activity at 10 µM: 126%
[14]
  remaining activity at 10 µM: 139%
[15]
  remaining activity at 10 µM: 97%
[16]
  remaining activity at 10 µM: 78%
[17]
  remaining activity at 10 µM: 104%
[18]
  remaining activity at 10 µM: 93%
[19]
  remaining activity at 10 µM: 83%
[20]
  remaining activity at 10 µM: 110%
[21]
  remaining activity at 10 µM: 135%
[22]
  remaining activity at 10 µM: 112%
[23]
  remaining activity at 10 µM: 146%
[24]
  remaining activity at 10 µM: 115%
[25]
  remaining activity at 10 µM: 99%
[26]
  Kinase activity (percentage of DMSO control): 88 percentage of DMSO control
[27]
  remaining activity at 10 µM: 75%
[28]
  remaining activity at 10 µM: 94%
[29]
  remaining activity at 10 µM: 92%
[30]
  remaining activity at 10 µM: 99%
[31]
  remaining activity at 10 µM: 105%
[32]
  remaining activity at 10 µM: 103%
[33]
  remaining activity at 10 µM: 63%
[34]
  remaining activity at 10 µM: 114%
[35]
  remaining activity at 10 µM: 81%
